Measured values: PubChem BioAssay (NCI)
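Method: 48-hour compound exposure of cells in 96-well plates, five concentrations, linear interpolation of endpoints. GI50 marks 50% less growth. TGI: total growth inhibition.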

Legend:
Test in all cases: growth of human tumour cells (NCI), 48 h
786-0 renal = system: 786-0 renal
A498 renal = system: A498 renal
A549 NSCLC = system: A549 NSCLC
ACHN renal = system: ACHN renal
BT-549 breast = system: BT-549 breast
CAKI-1 renal = system: CAKI-1 renal
CCRF-CEM leukemia = system: CCRF-CEM leukemia
COLO 205 colon = system: COLO 205 colon
DU-145 prostate = system: DU-145 prostate
EKVX NSCLC = system: EKVX NSCLC
HCC-2998 colon = system: HCC-2998 colon
HCT-116 colon = system: HCT-116 colon
HCT-15 colon = system: HCT-15 colon
HL-60(TB) leukemia = system: HL-60(TB) leukemia
HOP-62 NSCLC = system: HOP-62 NSCLC
HOP-92 NSCLC = system: HOP-92 NSCLC
HS 578T breast = system: HS 578T breast
HT29 colon = system: HT29 colon
IGROV1 ovarian = system: IGROV1 ovarian
K-562 leukemia = system: K-562 leukemia
KM12 colon = system: KM12 colon
LOX IMVI melanoma = system: LOX IMVI melanoma
M14 melanoma = system: M14 melanoma
MALME-3M melanoma = system: MALME-3M melanoma
MCF7 breast = system: MCF7 breast
MDA-MB-231 breast = system: MDA-MB-231 breast
MDA-MB-435 = system: MDA-MB-435
MDA-MB-468 breast = system: MDA-MB-468 breast
MOLT-4 leukemia = system: MOLT-4 leukemia
NCI-H226 lung = system: NCI-H226 lung

In the case of CCN1CCN(c2ccc(NC(=O)Nc3ccc(-c4cc(C(=O)NC)c5ncccc5n4)cc3)cc2C(F)(F)F)CC1, the GI50 (786-0 renal) is reported as 295 nM, the TGI (786-0 renal) is reported as 583 nM and the GI50 (A498 renal) is reported as 2740 nM. For the same compound, the TGI (A498 renal) was 5310 nM, the GI50 (A549 NSCLC) was 466 nM and the TGI (A549 NSCLC) was 1300 nM. The GI50 (ACHN renal) was 2390 nM, the TGI (ACHN renal) was 4730 nM and the GI50 (BT-549 breast) was 2780 nM. The TGI (BT-549 breast) was 5670 nM, the GI50 (CAKI-1 renal) was 3010 nM and the TGI (CAKI-1 renal) was 5600 nM. The GI50 (CCRF-CEM leukemia) was 461 nM, the TGI (CCRF-CEM leukemia) was 1270 nM and the GI50 (COLO 205 colon) was 4150 nM. It also gave a TGI (COLO 205 colon) of 14200 nM, a GI50 (DU-145 prostate) of 2230 nM and a TGI (DU-145 prostate) of 4900 nM. For the same compound, the GI50 (EKVX NSCLC) was 2940 nM, the TGI (EKVX NSCLC) was 5630 nM and the GI50 (HCC-2998 colon) was 2830 nM. For the same compound, the TGI (HCC-2998 colon) was 5310 nM, the GI50 (HCT-116 colon) was 1120 nM and the TGI (HCT-116 colon) was 4830 nM. It also gave a GI50 (HCT-15 colon) of 333 nM, a TGI (HCT-15 colon) of 697 nM and a GI50 (HL-60(TB) leukemia) of 3420 nM. The TGI (HL-60(TB) leukemia) was > 18000 nM, the GI50 (HOP-62 NSCLC) was 2790 nM and the TGI (HOP-62 NSCLC) was 5410 nM. For the same compound, the GI50 (HOP-92 NSCLC) was 2450 nM, the TGI (HOP-92 NSCLC) was 5670 nM and the GI50 (HS 578T breast) was 2390 nM. It also gave a TGI (HS 578T breast) of 6880 nM, a GI50 (HT29 colon) of 525 nM and a TGI (HT29 colon) of 2110 nM. For the same compound, the GI50 (IGROV1 ovarian) was 3010 nM, the TGI (IGROV1 ovarian) was 5610 nM and the GI50 (K-562 leukemia) was 657 nM. The TGI (K-562 leukemia) was > 18000 nM, the GI50 (KM12 colon) was 3250 nM and the TGI (KM12 colon) was 6650 nM. The GI50 (LOX IMVI melanoma) was 674 nM, the TGI (LOX IMVI melanoma) was 2660 nM and the GI50 (M14 melanoma) was 400 nM. The TGI (M14 melanoma) was 1050 nM, the GI50 (MALME-3M melanoma) was 286 nM and the TGI (MALME-3M melanoma) was 532 nM. For the same compound, the GI50 (MCF7 breast) was 293 nM, the TGI (MCF7 breast) was 608 nM and the GI50 (MDA-MB-231 breast) was 2780 nM. The TGI (MDA-MB-231 breast) was 5250 nM, the GI50 (MDA-MB-435) was 269 nM and the TGI (MDA-MB-435) was 564 nM. It also gave a GI50 (MDA-MB-468 breast) of 2480 nM, a TGI (MDA-MB-468 breast) of 5030 nM and a GI50 (MOLT-4 leukemia) of 689 nM. The TGI (MOLT-4 leukemia) was > 18000 nM and the GI50 (NCI-H226 lung) was 2700 nM.
